In publication PMC9823088, “The oral selective estrogen receptor degrader GDC-0810 (ARN-810) in postmenopausal women with hormone receptor-positive HER2-negative (HR + /HER2 −) advanced/metastatic breast cancer” (Breast Cancer Research and Treatment, 2022):

Test: Safety: adverse events (NCI-CTCAE v4.0), DLT, MTD, RP2D
Format: in vivo
Experimental: AEs were assessed using the National Cancer Institute-Common Terminology Criteria for Adverse Events (NCI-CTCAE v4.0). […] The protocol-defined GDC-0810-specific AEs of special interest (AESI) which were non-serious adverse events that required expedited reporting to the sponsor, included DLTs occurring during the DLT assessment window, grade ≥ 2 vomiting/diarrhea, grade ≥ 3 nausea, grade ≥ 2 thromboembolic events, grade ≥ 2 vaginal or uterine hemorrhage, and grade ≥ 3 elevation of ALT or AST.
Analyses of safety, pharmacokinetics, anti-tumor activity, and data from the FES-PET imaging correlative studies were planned. Confirmatory inferential analyses and imputation for missing data were not planned due to the exploratory nature of this study. Descriptive statistics were used to summarize patient data. The number of patients to be enrolled was dependent upon the observed safety and pharmacokinetic profile during dose escalations. The safety- and efficacy-evaluable population included patients who received at least one dose of the study drug. Safety was assessed through summaries of DLTs, AEs, changes in select laboratory test results, vital signs, ECGs, and changes in endometrial thickness. Objective response (with confirmation) and clinical benefit rates (CBR) were derived per RECIST v1.1 and summarized by dose level and cohort. […]
polyps, endometrial cancer, endometrial hyperplasia, and other significant disorders); any […]
disease or chronic diarrhea, short bowel syndrome, or upper gastrointestinal surgery; known human immunodeficiency virus (HIV) infection; known clinically significant history of liver disease; major surgery within 4 weeks prior to enrollment; or radiation therapy within 2 weeks […]
There were phase-specific exclusion criteria as well. In phase Ib, cohort C1 excluded patients with a history of venous thromboembolic event requiring therapeutic anticoagulation or vaginal bleeding within 2 months prior to enrollment. In phase IIa, cohorts A1 and A2 excluded patients with >1 chemotherapy in the advanced/metastatic disease setting. In phase IIa, cohort B1 excluded patients with >1 prior AI in the advanced/metastatic disease setting or prior […]
In phase IIa, cohort B2 excluded patients with >1 prior AI or >1 prior chemotherapy in the advanced/metastatic disease setting.
Patients in phase Ia in dose escalation received oral doses of GDC-0810 during 28-day cycles given once daily (QD) or twice-daily (BID), with fasting and without fasting, and with a single dose given on day −7 leading into cycle 1. The starting dose in the first cohort was 100 mg per day based on preclinical studies. Dose escalation to 200 mg and by 200 mg increments in successive cohorts occurred in the absence of dose-limiting toxicities (DLTs), or conditionally in the presence of DLTs. A DLT was defined as any adverse event (AE) occurring during the DLT window deemed by the investigator or sponsor to be related to the study drug unless they were clearly related to disease progression or other cause; DLT incidences were evaluated from day […]
patients in a dose cohort experienced a DLT, 3 additional patients were assigned to that dose; dose escalation to the next level proceeded if DLTs were experienced by ≤1 patient out of 6. If ≥2 patients experienced DLTs at a given dose, a lower dose was to be declared the maximum […]
Phase Ib was a dose-escalation study of GDC-0810 starting at 400 mg QD, as […]
Phase IIa explored the recommended phase 2 dose (RP2D) from phase Ia. All patients received GDC-0810 600 mg under non-fasting conditions. Cohorts A1 and A2 enrolled patients with tumors harboring ESR1 mutations with no prior fulvestrant use in cohort A1 while prior fulvestrant use was allowed in cohort A2. Cohorts B1 and B2 enrolled patients whose disease had progressed and who may have had one or no AI therapy; there was no prior fulvestrant use in cohort B1 while prior fulvestrant use was allowed in cohort B2.
Patients in all three study phases continued treatment until unacceptable toxicity, disease

[1] = phase 1a (n=41), grade 3, cohort 200 mg
[2] = phase 1a (n=41), grade 3, cohort 300 mg, BID
[3] = phase 1a (n=41), grade 3, cohort 600 mg
[4] = phase 1a (n=41), grade 3, cohort 800 mg, non-fasting
[5] = phase 1a (n=41), grade 4, cohort 600 mg, non-fasting
[6] = phase 1a (n=41), grade 5, cohort 600 mg, non-fasting
[7] = phase IIa A1, 600 mg QD, n = 19
[8] = phase IIa A2, 600 mg QD, n = 10
[9] = phase IIa B1, 600 mg QD, n = 53
[10] = phase IIa B2, 600 mg QD, n = 19

CC/C(=C(/c1ccc(/C=C/C(=O)O)cc1)c1ccc2[nH]ncc2c1)c1ccc(F)cc1Cl [GDC-0810]
tolerability based on frequency of gastrointestinal AEs (800 mg daily): intolerable
patients who reported SAEs regardless of attribution (across all 3 phases): 33 patients
AST increased, Grades 3–5 (all 3 study phases, N = 152): 4 (3) n (%)
AST increased, all grades (all 3 study phases, N = 152): 26 (17) n (%)
Abdominal pain, Grades 3–5 (all 3 study phases, N = 152): 3 (2) n (%)
Abdominal pain, all grades (all 3 study phases, N = 152): 28 (18) n (%)
Anemia, Grades 3–5 (all 3 study phases, N = 152): 4 (3) n (%)
Anemia, all grades (all 3 study phases, N = 152): 34 (22) n (%)
Arthralgia, Grades 3–5 (all 3 study phases, N = 152): 0 n (%)
Arthralgia, all grades (all 3 study phases, N = 152): 32 (21) n (%)
Constipation, Grades 3–5 (all 3 study phases, N = 152): 1 (1) n (%)
Constipation, all grades (all 3 study phases, N = 152): 42 (28) n (%)
Cough, Grades 3–5 (all 3 study phases, N = 152): 1 (1) n (%)
Cough, all grades (all 3 study phases, N = 152): 30 (20) n (%)
Decreased appetite, Grades 3–5 (all 3 study phases, N = 152): 0 n (%)
Decreased appetite, all grades (all 3 study phases, N = 152): 38 (25) n (%)
Diarrhea, Grades 3–5 (all 3 study phases, N = 152): 7 (5) n (%)
Diarrhea, all grades (all 3 study phases, N = 152): 95 (63) n (%)
Dyspepsia, Grades 3–5 (all 3 study phases, N = 152): 1 (1) n (%)
Dyspepsia, all grades (all 3 study phases, N = 152): 30 (20) n (%)
Fatigue, Grades 3–5 (all 3 study phases, N = 152): 6 (4) n (%)
Fatigue, all grades (all 3 study phases, N = 152): 77 (51) n (%)
Flatulence, Grades 3–5 (all 3 study phases, N = 152): 0 n (%)
Flatulence, all grades (all 3 study phases, N = 152): 29 (19) n (%)
Nausea, Grades 3–5 (all 3 study phases, N = 152): 1 (1) n (%)
Nausea, all grades (all 3 study phases, N = 152): 82 (54) n (%)
Vomiting, Grades 3–5 (all 3 study phases, N = 152): 4 (3) n (%)
Vomiting, all grades (all 3 study phases, N = 152): 47 (31) n (%)
patients experiencing ≥ 1 AE regardless of causality (all who received the study drug): All patients
dose-limiting toxicity (DLT) (dose escalation, 35-day DLT window, diarrhea, 800-mg QD): one and a DLT
ER agonist effects on the lipid profiles of patients (in vivo): no clinically significant ER agonist effects
patients who reported SAEs regardless of attribution (phase 1a): 13 n
SAE Pneumothorax (phase 1a (n=41), grade 1, cohort 800 mg, non-fasting): 1 (2%) n (%)
SAE Presyncope (phase 1a (n=41), grade 2, cohort 300 mg, BID): 1 (2%) n (%)
SAE Urinary tract infection (phase 1a (n=41), grade 3, cohort 100 mg): 1 (2%) n (%)
SAE Abdominal pain [1]: 1 (2%) n (%)
SAE Nausea [1]: 1 (2%) n (%)
SAE Vomiting [1]: 1 (2%) n (%)
SAE Skin infection [2]: 1 (2%) n (%)
SAE Venous thrombosis [2]: 1 (2%) n (%)
SAE Anemia [3]: 1 (2%) n (%)
SAE Ascites [3]: 1 (2%) n (%)
SAE Adrenal insufficiency [4]: 1 (2%) n (%)
SAE Fatigue [4]: 1 (2%) n (%)
SAE Pulmonary embolism (phase 1a (n=41), grade 4, cohort 300 mg, BID, related to study drug): 1 (2%) n (%)
SAE Thrombocytopenia (phase 1a (n=41), grade 4, cohort 600 mg): 1 (2%) n (%)
SAE Cardiac arrest [5]: 1 (2%) n (%)
SAE Hyponatremia [5]: 1 (2%) n (%)
SAE Cardiac failure [6]: 1 (2%) n (%)
SAE Metastases to peritoneum [6]: 1 (2%) n (%)
SAE Blood bilirubin increased (phase 1a (n=41), grade 5, cohort 800 mg): 1 (2%) n (%)
patients who reported SAEs regardless of attribution (phase 1b): 3 n
patients who reported SAEs regardless of attribution (phase 2a): 17 n
deaths (phase IIa): 3 deaths
AST increased, Grades 3–5 [7]: 0 n (%)
AST increased, all grades [7]: 1 (5) n (%)
Abdominal pain, Grades 3–5 [7]: 1 (5) n (%)
Abdominal pain, all grades [7]: 3 (16) n (%)
Anemia, Grades 3–5 [7]: 0 n (%)
Anemia, all grades [7]: 2 (11) n (%)
Arthralgia, Grades 3–5 [7]: 0 n (%)
Arthralgia, all grades [7]: 4 (21) n (%)
Constipation, Grades 3–5 [7]: 0 n (%)
Constipation, all grades [7]: 2 (11) n (%)
Cough, Grades 3–5 [7]: 0 n (%)
Cough, all grades [7]: 2 (11) n (%)
Decreased appetite, Grades 3–5 [7]: 0 n (%)
Decreased appetite, all grades [7]: 6 (32) n (%)
Diarrhea, Grades 3–5 [7]: 0 n (%)
Diarrhea, all grades [7]: 10 (53) n (%)
Dyspepsia, Grades 3–5 [7]: 0 n (%)
Dyspepsia, all grades [7]: 6 (31) n (%)
Fatigue, Grades 3–5 [7]: 0 n (%)
Fatigue, all grades [7]: 8 (42) n (%)
Flatulence, Grades 3–5 [7]: 0 n (%)
Flatulence, all grades [7]: 4 (21) n (%)
Nausea, Grades 3–5 [7]: 0 n (%)
Nausea, all grades [7]: 8 (42) n (%)
Vomiting, Grades 3–5 [7]: 2 (11) n (%)
Vomiting, all grades [7]: 8 (42) n (%)
AST increased, Grades 3–5 [8]: 0 n (%)
AST increased, all grades [8]: 2 (20) n (%)
Abdominal pain, Grades 3–5 [8]: 0 n (%)
Abdominal pain, all grades [8]: 0 n (%)
Anemia, Grades 3–5 [8]: 1 (10) n (%)
Anemia, all grades [8]: 2 (20) n (%)
Arthralgia, Grades 3–5 [8]: 0 n (%)
Arthralgia, all grades [8]: 0 n (%)
Constipation, Grades 3–5 [8]: 0 n (%)
Constipation, all grades [8]: 0 n (%)
Cough, Grades 3–5 [8]: 0 n (%)
Cough, all grades [8]: 1 (10) n (%)
Decreased appetite, Grades 3–5 [8]: 0 n (%)
Decreased appetite, all grades [8]: 3 (30) n (%)
Diarrhea, Grades 3–5 [8]: 1 (10) n (%)
Diarrhea, all grades [8]: 5 (50) n (%)
Dyspepsia, Grades 3–5 [8]: 1 (10) n (%)
Dyspepsia, all grades [8]: 2 (20) n (%)
Fatigue, Grades 3–5 [8]: 0 n (%)
Fatigue, all grades [8]: 2 (20) n (%)
Flatulence, Grades 3–5 [8]: 0 n (%)
Flatulence, all grades [8]: 0 n (%)
Nausea, Grades 3–5 [8]: 0 n (%)
Nausea, all grades [8]: 6 (60) n (%)
Vomiting, Grades 3–5 [8]: 0 n (%)
Vomiting, all grades [8]: 4 (40) n (%)
AST increased, Grades 3–5 [9]: 2 (4) n (%)
AST increased, all grades [9]: 4 (8) n (%)
Abdominal pain, Grades 3–5 [9]: 1 (2) n (%)
Abdominal pain, all grades [9]: 10 (19) n (%)
Anemia, Grades 3–5 [9]: 1 (2) n (%)
Anemia, all grades [9]: 6 (11) n (%)
Arthralgia, Grades 3–5 [9]: 0 n (%)
Arthralgia, all grades [9]: 14 (26) n (%)
Constipation, Grades 3–5 [9]: 1 (2) n (%)
Constipation, all grades [9]: 16 (30) n (%)
Cough, Grades 3–5 [9]: 1 (2) n (%)
Cough, all grades [9]: 8 (15) n (%)
Decreased appetite, Grades 3–5 [9]: 0 n (%)
Decreased appetite, all grades [9]: 9 (17) n (%)
Diarrhea, Grades 3–5 [9]: 5 (9) n (%)
Diarrhea, all grades [9]: 29 (55) n (%)
Dyspepsia, Grades 3–5 [9]: 0 n (%)
Dyspepsia, all grades [9]: 6 (11) n (%)
Fatigue, Grades 3–5 [9]: 2 (4) n (%)
Fatigue, all grades [9]: 27 (51) n (%)
Flatulence, Grades 3–5 [9]: 0 n (%)
Flatulence, all grades [9]: 13 (25) n (%)
Nausea, Grades 3–5 [9]: 0 n (%)
Nausea, all grades [9]: 24 (45) n (%)
Vomiting, Grades 3–5 [9]: 1 (2) n (%)
Vomiting, all grades [9]: 14 (26) n (%)
AST increased, Grades 3–5 [10]: 0 n (%)
AST increased, all grades [10]: 1 (5) n (%)
Abdominal pain, Grades 3–5 [10]: 0 n (%)
Abdominal pain, all grades [10]: 1 (5) n (%)
Anemia, Grades 3–5 [10]: 1 (5) n (%)
Anemia, all grades [10]: 4 (21) n (%)
Arthralgia, Grades 3–5 [10]: 0 n (%)
Arthralgia, all grades [10]: 0 n (%)
